How the values were obtained:
LDL = test: Inhibition of Cu^2+-catalyzed LDL oxidation (increase in fluorescence at 430 nm); format: biochemical, pigs; conditions: Table I; 50% inhibition of fluorescence increase at 430 nm; 5 μM Cu^2+, 2 hours, 37° C., pH 7.4; LDL 0.1 mg protein/ml
Procedure: The method for testing the antioxidant action of the substances is based on the inhibition of the Cu^2+ -catalyzed oxidation of LDL by active compounds, the increase in fluorescence at 430 nm serving as a measure of the LDL oxidation (U.P. Steinbrecher, J. Biol. Chem. 262. 3603 (1987)).
Blood from freshly slaughtered pigs, which was collected in the presence of EDTA (1 mg/ml) and NaN3 (0.1 mg/ml) and then centrifuged for 20 min at 2,000×g and 4° C. in order to remove the cellular constituents, was used for isolation of the LDL. Stepwise ultracentrifuging of the plasma in NaCl/NaBr solutions having densities of d=1.019 and d=1.063 yielded the LDL fraction (R. J. Havel, H. A. Eder and J. H. Bragdon, J. Clin. Investig. 34, 1345 (1955)). In this method the samples were centrifuged in a 50.2 Ti fixed angle rotor (Beckman Instruments) in each case for 18 hours at 300,000×g and 17° C. In order to lower the EDTA concentration, the LDL fraction obtained in this way had to be subjected for 48 hours to two dialyses in 100 times the volume of a phosphate-buffered saline solution (160 mM NaCl, 10 mM NaH2 PO4) of pH 7.4 (U. P. Steinbrecher, J. L. Witztum, S. Parthasarathy and D. Steinberg, Arteriosclerosis 7, 135 (1987)).
For the oxidation tests, the LDL fraction, which was stored at 4° C., was diluted to 0.1 mg of protein/ml using the dialysis buffer of the abovementioned composition. 2.5 ml of this LDL solution were treated with 25 μl of ethanolic solution having various concentrations of the test substance and the samples were incubated in closed vessels under nitrogen for 1 hour at 37° C., in order initially to achieve an adequate incorporation of the substance in the LDL particles (L. R. McLean and K. A. Hagaman, Biochemistry 28, 321 (1989)). The maximum concentration of the test compounds was 10 μM in the test.
The oxidation of the LDL was effected by adding 12.5 μl of a 1 mM CuSO4 solution, i.e. 5 μM Cu^2+ in the test, and incubating for two hours at 37° C. in cell culture dishes open to the air. The controls contained 25 μl of pure ethanol. To determine the blank, analogously prepared LDL samples were treated with 12.5 μl of a solution of 1 mM CuSO4 and 40 mM EDTA and likewise incubated for 2 hours at 37° C.
After the end of the incubation, the fluorescence intensity emitted at 430 nm was determined in all samples using the excitation wavelength 365 nm (Perkin-Elmer type LS-3 spectrofluorimeter).
The IC50 values, i.e. those molar concentrations which, under the test conditions described, inhibit the increase in fluorescence by 50% (controls =100), were determined for comparison of the strength of action of the antioxidants. For this purpose the fluorescence measurement was carried out as a duplicate determination using, in each case, 5 to 6 different concentrations of the test substance. Plotting the percentage inhibition values on semi-logarithmic paper and graphic interpolation gave the corresponding IC50 (Table I). Vitamin E was used as comparison compound.

[1] = test system: cholesterol biosynthesis in HEP-G2 cells; test: Suppression or inhibition of cholesterol biosynthesis in cell cultures of HEP-G2 cells; format: cell-based; conditions: Homo sapiens, HepG2, Table II, ^14C-cholesterol formed from ^14C-sodium acetate
Procedure: Monolayers of HEP-G2 cells in lipoprotein-free nutrient medium were preincubated with corresponding concentrations of the test substances for a certain time (e.g. 1 hour) and after addition of the labeled precursor, for example ^14 C-sodium acetate, the incubation was continued (e.g. 3 hours). After addition of an internal standard (^3 H-cholesterol), a portion of the cells was subjected to alkaline saponification. The lipids in the saponified cells were extracted with chloroform/methanol. After addition of carrier cholesterol, this lipid mixture was separated by preparative thin layer chromatography, the cholesterol band was isolated after rendering visible using iodine vapor and the amount of ^14 C-cholesterol formed from the ^14 C-precursor was determined by scintigraphy. Cell protein was determined in a aliquote portion of the cells, so that the amount of ^14 C-cholesterol formed per unit time per mg of cell protein can be calculated. By comparing this value with the amount of ^14 C-cholesterol which was formed per mg of cell protein and per unit time from a culture which was treated in the same way but free from test substance, the inhibitory effect of the particular test preparation on the cholesterol biosynthesis of HEP-G2 cell cultures was obtained. [drawing 12]
Using the method described above, for example, the following inhibitory values for the cholesterol biosynthesis (in HEP-G2 cells) were determined for the compounds according to the invention (the IC50 value in mole/liter is that concentration of the compound which effects a 50% inhibition of the cholesterol biosynthesis) (Tab. II).

| IC50 (LDL) [nM] | Compound | IC50 [1] [nM] |
| --- | --- | --- |
| 330 | C/C(=C\CSCc1c(-c2ccc(F)cc2)oc2cc(O)cc(O)c2c1=O)CCC[C@H](C)CCC[C@H](C)CCCC(C)C [Example 9e] | 10 |
| 8000 | CCCCCCCCCCCCCCCCCCSCc1c(-c2ccc(F)cc2)oc2cc(O)cc(O)c2c1=O [Example 9d] | – |
| – | COc1ccc(-c2oc3cc(O)cc(O)c3c(=O)c2CSC/C=C(\C)CC/C=C(\C)CCC=C(C)C)cc1 [Example 9m] | 80 |
| 900 | C/C(=C\CSCc1c(-c2ccc(O)cc2)oc2cc(O)cc(O)c2c1=O)CCC[C@H](C)CCC[C@H](C)CCCC(C)C [Example 9i] | 9 |
| 4800 | Vitamin E [reference compound] | – |
| 12000 | CCCCCCCCCCCCSCc1c(-c2ccc(F)cc2)oc2cc(O)cc(O)c2c1=O [Example 9b] | – |
| – | CC(C)=CCC/C(C)=C/CC/C(C)=C/CSCc1c(-c2ccc(F)cc2)oc2cc(O)cc(O)c2c1=O [Example 9l] | 80 |
